Experiments:
[1] = target: Hepatocyte growth factor receptor (Homo sapiens, UniProt P08581); assay: Inhibition of MET (unknown origin)
Huh-7 [2] = assay: Antitumor activity against human HuH7 cells xenografted in nude BALB/c mouse assessed as inhibition of tumor growth at 10 mg/kg bid for 14 days and measured twice per week relative to untreated control; format: functional; details: Huh-7, 336 h, read-out: TGI
[3] = Toxicity in male BALB/c mouse assessed as effect on clinical pathology parameters at 200 to 2000 mg/kg, ig administered as single dose measured after 14 days; format: organism-based; details: in vivo, po, 336 h
[4] = target: Tyrosine-protein kinase receptor UFO (Homo sapiens, UniProt P30530); assay: Inhibition of AXL (unknown origin)
Huh-7 [5] = assay: Antitumor activity against human HuH7 cells xenografted in nude BALB/c mouse assessed as inhibition of tumor growth at 100 mg/kg bid for 14 days and measured twice per week relative to untreated control; format: functional; details: Huh-7, 336 h, read-out: TGI
Huh-7 [6] = assay: Antitumor activity against human HuH7 cells xenografted in nude BALB/c mouse assessed as inhibition of tumor growth at 30 mg/kg bid for 14 days and measured twice per week relative to untreated control; format: functional; details: Huh-7, 336 h, read-out: TGI
[7] = target: T1, Fibroblast growth factor receptor 1 (Homo sapiens, UniProt P11362); assay: Inhibition of FGFR1 (unknown origin) incubated for 60 mins by caliper microfluidic mobility shift technology based assay
T1 sequence (P11362 whole entry): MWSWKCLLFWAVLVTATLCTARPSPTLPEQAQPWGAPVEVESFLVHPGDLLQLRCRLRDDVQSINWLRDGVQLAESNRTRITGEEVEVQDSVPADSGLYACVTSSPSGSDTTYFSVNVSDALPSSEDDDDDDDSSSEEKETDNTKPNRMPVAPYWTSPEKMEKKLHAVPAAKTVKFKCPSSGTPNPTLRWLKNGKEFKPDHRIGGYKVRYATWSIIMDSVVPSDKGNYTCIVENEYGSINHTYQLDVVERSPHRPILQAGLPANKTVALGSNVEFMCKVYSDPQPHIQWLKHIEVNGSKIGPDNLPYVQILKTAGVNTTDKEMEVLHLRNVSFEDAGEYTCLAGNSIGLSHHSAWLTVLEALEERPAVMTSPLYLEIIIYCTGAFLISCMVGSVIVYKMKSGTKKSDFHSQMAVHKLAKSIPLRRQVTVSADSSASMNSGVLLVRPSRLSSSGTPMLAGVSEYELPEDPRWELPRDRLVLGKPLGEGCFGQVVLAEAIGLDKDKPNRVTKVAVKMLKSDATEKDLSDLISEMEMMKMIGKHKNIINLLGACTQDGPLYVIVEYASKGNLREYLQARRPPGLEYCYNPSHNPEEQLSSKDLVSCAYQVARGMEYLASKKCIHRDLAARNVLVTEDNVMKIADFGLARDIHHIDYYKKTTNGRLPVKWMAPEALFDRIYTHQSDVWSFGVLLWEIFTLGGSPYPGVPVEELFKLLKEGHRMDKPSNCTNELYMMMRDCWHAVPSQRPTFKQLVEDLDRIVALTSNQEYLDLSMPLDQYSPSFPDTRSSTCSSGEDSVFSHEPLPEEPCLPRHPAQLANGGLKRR

Focal adhesion kinase 1 = Focal adhesion kinase 1 (Homo sapiens, UniProt Q05397); assay: Inhibition of FAK (unknown origin)
[8] = target: Epidermal growth factor receptor (Homo sapiens, UniProt P00533); assay: Inhibition of EGFR (unknown origin)
[9] = target: Fibroblast growth factor receptor 3 (Homo sapiens, UniProt P22607); assay: Inhibition of FGFR3 (unknown origin)
[10] = target: Non-receptor tyrosine-protein kinase TYK2 (Homo sapiens, UniProt P29597); assay: Inhibition of TYK2 (unknown origin)
[11] = target: Vascular endothelial growth factor receptor 3 (Homo sapiens, UniProt P35916); assay: Inhibition of FLT4 (unknown origin)
[12] = target: Receptor-type tyrosine-protein kinase FLT3 (Homo sapiens, UniProt P36888); assay: Inhibition of FLT3 (unknown origin)
[13] = target: Vascular endothelial growth factor receptor 2 (Homo sapiens, UniProt P35968); assay: Inhibition of KDR (unknown origin)
[14] = Toxicity in male BALB/c mouse assessed as induction of animal death at 450 mg/kg/day, ig dosed once daily for 4 weeks followed by rehabilitation for another 28 days; format: organism-based; details: in vivo, po, 672 h
[15] = target: High affinity nerve growth factor receptor (Homo sapiens, UniProt P04629); assay: Inhibition of TRKA (unknown origin)
[16] = target: MAP kinase-activated protein kinase 3 (Homo sapiens, UniProt Q16644); assay: Inhibition of MAPKAPK3 (unknown origin)
Sequence of MAP kinase-activated protein kinase 3 (Q16644 whole entry): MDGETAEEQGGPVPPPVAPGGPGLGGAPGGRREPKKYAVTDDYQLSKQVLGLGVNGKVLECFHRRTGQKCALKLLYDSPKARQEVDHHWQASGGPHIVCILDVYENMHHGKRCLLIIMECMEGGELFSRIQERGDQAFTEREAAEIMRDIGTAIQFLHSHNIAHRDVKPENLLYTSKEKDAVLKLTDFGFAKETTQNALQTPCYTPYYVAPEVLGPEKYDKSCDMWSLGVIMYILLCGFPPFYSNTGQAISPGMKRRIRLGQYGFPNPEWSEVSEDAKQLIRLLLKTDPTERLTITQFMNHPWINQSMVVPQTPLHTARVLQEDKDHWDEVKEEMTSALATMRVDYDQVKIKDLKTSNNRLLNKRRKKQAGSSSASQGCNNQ

[17] = target: ALK tyrosine kinase receptor (Homo sapiens, UniProt Q9UM73); assay: Inhibition of ALK (unknown origin)
Ephrin type-B receptor 1 = Ephrin type-B receptor 1 (Homo sapiens, UniProt P54762); assay: Inhibition of EphB1 (unknown origin)
Hep 3B2 [18] = assay: Antitumor activity against human Hep3B cells xenografted in nude BALB/c mouse assessed as inhibition of tumor growth at 10 mg/kg bid for 14 days and measured twice per week relative to untreated control; format: functional; details: 336 h, read-out: TGI
[19] = target: Receptor tyrosine-protein kinase erbB-4 (Homo sapiens, UniProt Q15303); assay: Inhibition of HER4 (unknown origin)
Sequence of Receptor tyrosine-protein kinase erbB-4 (Q15303 whole entry): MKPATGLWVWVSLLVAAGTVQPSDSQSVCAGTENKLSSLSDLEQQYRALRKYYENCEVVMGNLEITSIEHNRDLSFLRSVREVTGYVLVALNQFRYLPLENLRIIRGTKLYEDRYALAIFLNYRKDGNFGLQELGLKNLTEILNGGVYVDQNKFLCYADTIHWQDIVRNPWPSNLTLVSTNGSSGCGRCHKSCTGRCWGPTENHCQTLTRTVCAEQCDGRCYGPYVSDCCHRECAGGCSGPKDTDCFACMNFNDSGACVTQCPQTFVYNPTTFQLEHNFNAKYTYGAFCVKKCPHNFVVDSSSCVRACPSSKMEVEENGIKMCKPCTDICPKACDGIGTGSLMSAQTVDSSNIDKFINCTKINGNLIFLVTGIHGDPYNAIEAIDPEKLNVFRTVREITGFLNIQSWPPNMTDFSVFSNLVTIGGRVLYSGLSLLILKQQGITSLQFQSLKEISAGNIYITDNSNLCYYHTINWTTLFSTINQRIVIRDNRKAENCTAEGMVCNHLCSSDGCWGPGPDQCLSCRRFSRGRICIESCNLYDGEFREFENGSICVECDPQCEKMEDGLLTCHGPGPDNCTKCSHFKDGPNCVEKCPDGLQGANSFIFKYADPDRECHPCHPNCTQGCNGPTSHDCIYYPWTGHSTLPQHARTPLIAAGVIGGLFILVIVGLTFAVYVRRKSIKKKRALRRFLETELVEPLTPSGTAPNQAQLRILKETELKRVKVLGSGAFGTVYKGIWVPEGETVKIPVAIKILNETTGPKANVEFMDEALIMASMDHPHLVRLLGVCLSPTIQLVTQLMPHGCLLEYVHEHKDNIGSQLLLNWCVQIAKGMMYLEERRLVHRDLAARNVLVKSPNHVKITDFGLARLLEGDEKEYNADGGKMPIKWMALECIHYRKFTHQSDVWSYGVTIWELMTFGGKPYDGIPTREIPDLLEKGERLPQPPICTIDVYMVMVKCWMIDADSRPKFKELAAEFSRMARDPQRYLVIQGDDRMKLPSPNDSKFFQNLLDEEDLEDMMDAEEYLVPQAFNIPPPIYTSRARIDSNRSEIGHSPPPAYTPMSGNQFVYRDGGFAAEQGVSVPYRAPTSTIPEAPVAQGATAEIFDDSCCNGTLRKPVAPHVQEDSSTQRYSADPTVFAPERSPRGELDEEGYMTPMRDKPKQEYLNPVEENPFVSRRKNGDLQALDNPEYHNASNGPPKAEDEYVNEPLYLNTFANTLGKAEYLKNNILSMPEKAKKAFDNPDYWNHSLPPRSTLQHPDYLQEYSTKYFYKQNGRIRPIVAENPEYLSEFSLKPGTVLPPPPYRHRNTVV

[20] = target: Macrophage-stimulating protein receptor (Homo sapiens, UniProt Q04912); assay: Inhibition of RON (unknown origin)
[21] = target: Leukocyte tyrosine kinase receptor (Homo sapiens, UniProt P29376); assay: Inhibition of LTK (unknown origin)
Sequence of Leukocyte tyrosine kinase receptor (P29376 whole entry): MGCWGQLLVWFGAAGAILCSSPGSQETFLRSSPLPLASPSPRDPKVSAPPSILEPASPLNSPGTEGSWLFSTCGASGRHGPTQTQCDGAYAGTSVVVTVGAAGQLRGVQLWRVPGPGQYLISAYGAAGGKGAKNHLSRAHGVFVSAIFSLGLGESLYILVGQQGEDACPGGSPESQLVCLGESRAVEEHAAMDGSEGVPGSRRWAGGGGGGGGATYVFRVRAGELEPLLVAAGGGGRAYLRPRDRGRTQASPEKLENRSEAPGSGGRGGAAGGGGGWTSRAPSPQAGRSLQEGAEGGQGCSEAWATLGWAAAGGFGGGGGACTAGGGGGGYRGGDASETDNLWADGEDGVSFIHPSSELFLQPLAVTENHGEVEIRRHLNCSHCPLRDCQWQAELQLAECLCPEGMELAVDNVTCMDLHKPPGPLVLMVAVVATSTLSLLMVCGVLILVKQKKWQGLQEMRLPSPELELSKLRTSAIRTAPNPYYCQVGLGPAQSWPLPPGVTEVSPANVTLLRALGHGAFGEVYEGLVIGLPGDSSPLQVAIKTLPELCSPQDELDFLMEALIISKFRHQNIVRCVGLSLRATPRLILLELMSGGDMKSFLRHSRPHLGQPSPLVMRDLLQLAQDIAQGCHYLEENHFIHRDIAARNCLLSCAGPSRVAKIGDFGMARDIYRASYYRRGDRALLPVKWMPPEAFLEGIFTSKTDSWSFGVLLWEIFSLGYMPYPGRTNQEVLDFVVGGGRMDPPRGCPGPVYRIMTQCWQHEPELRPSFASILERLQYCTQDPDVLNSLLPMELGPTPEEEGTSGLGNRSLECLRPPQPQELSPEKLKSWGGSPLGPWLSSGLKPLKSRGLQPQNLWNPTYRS

Hep 3B2 [22] = assay: Antitumor activity against human Hep3B cells xenografted in nude BALB/c mouse assessed as inhibition of tumor growth at 3 mg/kg bid for 14 days and measured twice per week relative to untreated control; format: functional; details: 336 h, read-out: TGI
[23] = target: Vascular endothelial growth factor receptor 1 (Homo sapiens, UniProt P17948); assay: Inhibition of FLT1 (unknown origin)
[24] = target: Platelet-derived growth factor receptor alpha (Homo sapiens, UniProt P16234); assay: Inhibition of PDGFRalpha (unknown origin)
[25] = Toxicity in male BALB/c mouse assessed as effect on body weight at 50 to 450 mg/kg/day, ig dosed once daily for 4 weeks followed by rehabilitation for another 28 days; format: organism-based; details: in vivo, po, 672 h
SK-HEP1 = assay: Antiproliferative activity against human SKHEP1 cells without FGFR4 gene amplification assessed as inhibition of cell proliferation incubated for 72 hrs by CellTiter-Glo method; format: functional, cell-based; details: SK-HEP1, 72 h
[26] = target: Platelet-derived growth factor receptor beta (Homo sapiens, UniProt P09619); assay: Inhibition of PDGFRbeta (unknown origin)
Hep 3B2 [27] = assay: cells; details: Homo sapiens, Hep3B, 72 h
[28] = target: Proto-oncogene tyrosine-protein kinase receptor Ret (Homo sapiens, UniProt P07949); assay: Inhibition of RET (unknown origin)
[29] = Toxicity in female BALB/c mouse at 50 to 450 mg/kg/day, ig dosed once daily for 4 weeks followed by rehabilitation for another 28 days; format: organism-based; details: in vivo, po
[30] = Toxicity in female BALB/c mouse assessed as induction of animal death at 450 mg/kg/day, ig dosed once daily for 4 weeks followed by rehabilitation for another 28 days; format: organism-based; details: in vivo, po, 672 h
[31] = target: T1, Fibroblast growth factor receptor 1; assay: Inhibition of FGFR1 (unknown origin)
[32] = Toxicity in male BALB/c mouse at 50 to 450 mg/kg/day, ig dosed once daily for 4 weeks followed by rehabilitation for another 28 days; format: organism-based; details: in vivo, po
[33] = target: Proto-oncogene tyrosine-protein kinase ROS (Homo sapiens, UniProt P08922); assay: Inhibition of ROS (unknown origin)
[34] = target: Tyrosine-protein kinase JAK1 (Homo sapiens, UniProt P23458); assay: Inhibition of JAK1 (unknown origin)
[35] = Toxicity in male BALB/c mouse at 200 to 2000 mg/kg, ig administered as single dose measured after 14 days; format: organism-based; details: in vivo, po
[36] = target: Fibroblast growth factor receptor 4 (Homo sapiens, UniProt P22455); assay: Inhibition of FGFR4 (unknown origin) incubated for 60 mins by caliper microfluidic mobility shift technology based assay
[37] = target: MAP kinase-activated protein kinase 2 (Homo sapiens, UniProt P49137); assay: Inhibition of MAPKAPK2 (unknown origin)
[38] = Toxicity in female BALB/c mouse assessed as effect on body weight at 50 to 450 mg/kg/day, ig dosed once daily for 4 weeks followed by rehabilitation for another 28 days; format: organism-based; details: in vivo, po, 672 h
[39] = Toxicity in female BALB/c mouse at 200 to 2000 mg/kg, ig administered as single dose measured after 14 days; format: organism-based; details: in vivo, po
[40] = target: Tyrosine-protein kinase JAK2 (Homo sapiens, UniProt O60674); assay: Inhibition of JAK2 (unknown origin)

Sequence of Hepatocyte growth factor receptor (P08581 whole entry): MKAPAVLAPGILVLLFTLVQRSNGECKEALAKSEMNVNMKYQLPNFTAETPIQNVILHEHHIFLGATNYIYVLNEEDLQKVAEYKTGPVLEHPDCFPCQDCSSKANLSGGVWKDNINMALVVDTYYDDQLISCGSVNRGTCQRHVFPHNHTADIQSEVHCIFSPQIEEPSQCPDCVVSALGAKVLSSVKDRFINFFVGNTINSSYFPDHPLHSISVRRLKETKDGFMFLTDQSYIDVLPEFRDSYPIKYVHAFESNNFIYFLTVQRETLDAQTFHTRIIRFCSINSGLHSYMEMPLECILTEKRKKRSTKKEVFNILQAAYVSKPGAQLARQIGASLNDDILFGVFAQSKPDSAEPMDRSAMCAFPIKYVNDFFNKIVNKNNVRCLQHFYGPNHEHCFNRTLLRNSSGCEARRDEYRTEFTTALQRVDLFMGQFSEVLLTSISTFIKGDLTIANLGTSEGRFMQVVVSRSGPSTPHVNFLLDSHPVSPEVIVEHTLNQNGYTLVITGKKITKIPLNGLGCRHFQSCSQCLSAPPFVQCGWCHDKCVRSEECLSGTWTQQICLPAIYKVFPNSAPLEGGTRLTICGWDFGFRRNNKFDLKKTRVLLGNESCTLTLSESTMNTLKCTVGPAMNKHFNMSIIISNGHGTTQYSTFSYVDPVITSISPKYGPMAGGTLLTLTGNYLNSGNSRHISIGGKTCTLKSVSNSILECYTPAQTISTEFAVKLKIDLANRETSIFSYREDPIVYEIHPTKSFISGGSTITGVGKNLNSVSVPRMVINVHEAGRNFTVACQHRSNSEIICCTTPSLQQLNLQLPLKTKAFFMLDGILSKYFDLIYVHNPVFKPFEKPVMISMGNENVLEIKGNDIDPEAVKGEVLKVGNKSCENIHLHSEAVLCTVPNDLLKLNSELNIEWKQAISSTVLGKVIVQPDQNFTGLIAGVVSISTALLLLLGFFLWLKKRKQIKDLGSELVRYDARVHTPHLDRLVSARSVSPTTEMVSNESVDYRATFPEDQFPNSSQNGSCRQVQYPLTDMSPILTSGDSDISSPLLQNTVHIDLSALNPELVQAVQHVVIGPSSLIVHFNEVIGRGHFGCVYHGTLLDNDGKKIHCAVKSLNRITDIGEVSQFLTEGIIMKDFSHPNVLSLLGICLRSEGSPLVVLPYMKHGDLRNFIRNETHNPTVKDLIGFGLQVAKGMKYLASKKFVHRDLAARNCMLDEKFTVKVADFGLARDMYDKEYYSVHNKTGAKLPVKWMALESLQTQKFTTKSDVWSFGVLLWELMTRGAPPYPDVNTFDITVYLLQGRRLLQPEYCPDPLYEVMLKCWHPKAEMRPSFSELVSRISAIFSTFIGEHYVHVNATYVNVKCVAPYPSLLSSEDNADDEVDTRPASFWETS

SMILES: COC[C@@H](C)Nc1cc(NC(=O)N2CCCc3cc(CN4CCCCOC4=O)c(C=O)nc32)ncc1C#N
- IC50 [1]: > 10 µM
- inhibition in vivo at 10 mg/kg (Huh-7 [2]): 28.1%
- Activity [3]: Non-Toxic
- IC50 [4]: > 10 µM
- inhibition in vivo at 100 mg/kg (Huh-7 [5]): 70.8%
- inhibition in vivo at 30 mg/kg (Huh-7 [6]): 62.7%
- IC50 [7]: > 10 µM
- IC50 (Focal adhesion kinase 1): > 10 µM
- IC50 [8]: > 10 µM
- IC50 [9]: > 10 µM
- IC50 [10]: > 10 µM
- IC50 [11]: > 10 µM
- IC50 [12]: > 10 µM
- IC50 [13]: > 10 µM
- Activity [14]: Non-Toxic
- IC50 [15]: > 10 µM
- IC50 [16]: > 10 µM
- IC50 [17]: > 10 µM
- IC50 (Ephrin type-B receptor 1): > 10 µM
- inhibition in vivo at 10 mg/kg (Hep 3B2 [18]): 126%
- IC50 [19]: > 10 µM
- IC50 [20]: > 10 µM
- IC50 [21]: > 10 µM
- inhibition in vivo at 3 mg/kg (Hep 3B2 [22]): 69.8%
- IC50 [23]: > 10 µM
- IC50 [24]: > 10 µM
- Activity [25]: Non-Toxic
- IC50 (SK-HEP1): > 10 µM
- IC50 [26]: > 10 µM
- IC50 (Hep 3B2 [27]): 0.0011 µM
- IC50 [28]: > 10 µM
- NOAEL at 672 h [29]: 150 mg/kg
- Activity [30]: Toxic
- IC50 [31]: > 10 µM
- NOAEL at 672 h [32]: 450 mg/kg
- IC50 [33]: > 10 µM
- IC50 [34]: > 10 µM
- NOAEL at 336 h [35]: 2000 mg/kg/day
- IC50 [36]: 0.0015 µM
- IC50 [37]: > 10 µM
- Activity [38]: Non-Toxic
- NOAEL at 336 h [39]: 2000 mg/kg/day
- IC50 [40]: > 10 µM

From ChEMBL document CHEMBL4339212, “Novel 7-formyl-naphthyridyl-ureas derivatives as potential selective FGFR4 inhibitors: Design, synthesis, and biological activity studies” (Bioorg Med Chem, 2019)
